In US10336730B2, “Substituted glycine derived FXIA inhibitors” (BRISTOL-MYERS SQUIBB COMPANY, priority 2015, dated 2019):

What follows are molecules tested against T1, purified human Factor XIa (Homo sapiens, UniProt P03951) (assay: Factor XIa enzyme inhibition assay (chromogenic substrate S-2366), Ki). Details: substrate S-2366, pH 7.4.
T1 construct: purchased Haematologic Technologies
Type: biochemical
In short: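 Purified human Factor XIa ([…] final) with chromogenic substrate S-2366 (0.0002-0.001 M) in 50 mM HEPES pH 7.4, 145 mM NaCl, 5 mM KCl, 0.1% PEG 8000. Velocities measured over 20-180 minutes with and without inhibitor; Ki derived assuming competitive inhibition, e.g. Ki=IC50/(1+S/Km).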

T1 sequence (P03951 388-625 limits assumed): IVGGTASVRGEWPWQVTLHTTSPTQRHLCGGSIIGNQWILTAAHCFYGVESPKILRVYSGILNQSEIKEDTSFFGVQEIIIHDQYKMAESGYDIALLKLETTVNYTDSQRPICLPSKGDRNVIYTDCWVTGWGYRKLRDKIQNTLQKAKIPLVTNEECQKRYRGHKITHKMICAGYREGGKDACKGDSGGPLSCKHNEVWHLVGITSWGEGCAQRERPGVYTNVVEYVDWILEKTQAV
T1 sequence (P03951 19-387 partner limits assumed): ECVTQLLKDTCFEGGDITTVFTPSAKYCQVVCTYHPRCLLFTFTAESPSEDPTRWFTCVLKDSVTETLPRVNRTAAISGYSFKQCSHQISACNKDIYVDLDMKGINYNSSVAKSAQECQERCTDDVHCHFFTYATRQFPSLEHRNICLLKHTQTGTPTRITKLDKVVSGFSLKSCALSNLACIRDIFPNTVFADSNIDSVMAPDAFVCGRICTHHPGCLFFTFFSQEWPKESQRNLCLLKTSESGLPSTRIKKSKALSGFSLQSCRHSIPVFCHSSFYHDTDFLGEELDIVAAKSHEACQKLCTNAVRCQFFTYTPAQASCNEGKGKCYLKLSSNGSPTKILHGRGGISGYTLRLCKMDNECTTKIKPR

Row | Compound | Ki [nM]
1 | CC1=NN=C(NC(=O)[C@H](Cc2ccccc2)n2cnc(-c3cc(Cl)ccc3-n3cc(Cl)nn3)cc2=O)SC1 [Example 107, (S)-2-(4-(5-chloro-2-(4-chloro-1H-1,2,3-triazol-1-yl)phenyl)-6-oxopyrimidin-1(6H)-yl)-N-(5-methyl-6H-1,3,4-thiadiazin-2-yl)-3-phenylpropanamide] | 4550
2 | O=C(O)C[C@H]1CC[C@H](NC(=O)[C@H](Cc2ccccc2)n2cnc(-c3cc(Cl)ccc3-n3cc(Cl)nn3)cc2=O)CC1 [Example 108, 2-((1S,4r)-4-((S)-2-(4-(5-chloro-2-(4-chloro-1H-1,2,3-triazol-1-yl)phenyl)-6-oxopyrimidin-1(6H)-yl)-3-phenylpropanamido)cyclohexyl)acetic acid] | 220
3 | O=C(Nc1ncnc2[nH]ncc12)[C@H](Cc1ccccc1)n1cnc(-c2cc(Cl)ccc2-n2cc(Cl)nn2)cc1=O [Example 109, (S)-2-(4-(5-chloro-2-(4-chloro-1H-1,2,3-triazol-1-yl)phenyl)-6-oxopyrimidin-1(6H)-yl)-3-phenyl-N-(1H-pyrazolo[3,4-d]pyrimidin-4-yl)propanamide] | 150
4 | O=C(Nc1nnc(C2CCC2)[nH]1)[C@H](Cc1ccccc1)n1cnc(-c2cc(Cl)ccc2-n2cc(Cl)nn2)cc1=O [Example 110, (S)-2-(4-(5-chloro-2-(4-chloro-1H-1,2,3-triazol-1-yl)phenyl)-6-oxopyrimidin-1(6H)-yl)-N-(5-cyclobutyl-4H-1,2,4-triazol-3-yl)-3-phenylpropanamide] | 257
5 | NC(=O)c1ccc(NC(=O)[C@H](Cc2ccccc2)n2cnc(-c3cc(Cl)ccc3-n3cc(Cl)nn3)cc2=O)nc1 [Example 111, (S)-6-(2-(4-(5-chloro-2-(4-chloro-1H-1,2,3-triazol-1-yl)phenyl)-6-oxopyrimidin-1(6H)-yl)-3-phenylpropanamido)nicotinamide] | 106
6 | N=C(N)c1ccc(NC(=O)[C@H](Cc2ccccc2)n2cnc(-c3cc(Cl)ccc3-n3cc(Cl)nn3)cc2=O)cc1 [Example 112, (S)-N-(4-carbamimidoylphenyl)-2-(4-(5-chloro-2-(4-chloro-1H-1,2,3-triazol-1-yl)phenyl)-6-oxopyrimidin-1(6H)-yl)-3-phenylpropanamide] | 277
7 | Cc1ccc2c(NC(=O)[C@H](Cc3ccccc3)n3cnc(-c4cc(Cl)ccc4-n4cc(Cl)nn4)cc3=O)noc2c1 [Example 113, (S)-2-(4-(5-chloro-2-(4-chloro-1H-1,2,3-triazol-1-yl)phenyl)-6-oxopyrimidin-1(6H)-yl)-N-(6-methylbenzo[d]isoxazol-3-yl)-3-phenylpropanamide] | 74
8 | O=C(Nc1noc2cc(Br)ccc12)[C@H](Cc1ccccc1)n1cnc(-c2cc(Cl)ccc2-n2cc(Cl)nn2)cc1=O [Example 114, (S)-N-(6-bromobenzo[d]isoxazol-3-yl)-2-(4-(5-chloro-2-(4-chloro-1H-1,2,3-triazol-1-yl)phenyl)-6-oxopyrimidin-1(6H)-yl)-3-phenylpropanamide] | 336
9 | O=C(Nc1noc2c(Cl)cccc12)[C@H](Cc1ccccc1)n1cnc(-c2cc(Cl)ccc2-n2cc(Cl)nn2)cc1=O [Example 115, (S)-2-(4-(5-chloro-2-(4-chloro-1H-1,2,3-triazol-1-yl)phenyl)-6-oxopyrimidin-1(6H)-yl)-N-(7-chlorobenzo[d]isoxazol-3-yl)-3-phenylpropanamide] | 305
10 | Cc1nc2ccc(CNC(=O)[C@H](Cc3ccccc3)n3cnc(-c4cc(Cl)ccc4-n4cc(Cl)nn4)cc3=O)cc2[nH]1 [Example 116, (S)-2-(4-(5-chloro-2-(4-chloro-1H-1,2,3-triazol-1-yl)phenyl)-6-oxopyrimidin-1(6H)-yl)-N-((2-methyl-1H-benzo[d]imidazol-6-yl)methyl)-3-phenylpropanamide] | 463
11 | O=C1NCc2ccc(NC(=O)[C@H](Cc3ccccc3)n3cnc(-c4cc(Cl)ccc4-n4cc(Cl)nn4)cc3=O)cc21 [Example 117, (S)-2-(4-(5-chloro-2-(4-chloro-1H-1,2,3-triazol-1-yl)phenyl)-6-oxopyrimidin-1(6H)-yl)-N-(3-oxoisoindolin-5-yl)-3-phenylpropanamide] | 102
12 | NC(=O)c1ccc(NC(=O)[C@H](Cc2ccccc2)n2cnc(-c3cc(Cl)ccc3-n3cc(Cl)nn3)cc2=O)cc1 [Example 118, (S)-4-(2-(4-(5-chloro-2-(4-chloro-1H-1,2,3-triazol-1-yl)phenyl)-6-oxopyrimidin-1(6H)-yl)-3-phenylpropanamido)benzamide] | 33.3
13 | O=C(Nc1cnn(-c2ccc(Cl)cc2)c1)[C@H](Cc1ccccc1)n1cnc(-c2cc(Cl)ccc2-n2cc(Cl)nn2)cc1=O [Example 119, (S)-2-(4-(5-chloro-2-(4-chloro-1H-1,2,3-triazol-1-yl)phenyl)-6-oxopyrimidin-1(6H)-yl)-N-(1-(4-chlorophenyl)-1H-pyrazol-4-yl)-3-phenylpropanamide] | 408
14 | O=C(Nc1cnn(-c2ccccc2)c1)[C@H](Cc1ccccc1)n1cnc(-c2cc(Cl)ccc2-n2cc(Cl)nn2)cc1=O [Example 120, (S)-2-(4-(5-chloro-2-(4-chloro-1H-1,2,3-triazol-1-yl)phenyl)-6-oxopyrimidin-1(6H)-yl)-3-phenyl-N-(1-phenyl-1H-pyrazol-4-yl)propanamide] | 549
15 | O=C(Nc1noc2ccccc12)[C@H](Cc1ccccc1)n1cnc(-c2cc(Cl)ccc2-n2cc(Cl)nn2)cc1=O [Example 121, (S)-N-(benzo[d]isoxazol-3-yl)-2-(4-(5-chloro-2-(4-chloro-1H-1,2,3-triazol-1-yl)phenyl)-6-oxopyrimidin-1(6H)-yl)-3-phenylpropanamide] | 158
16 | O=C(Nc1n[nH]c2cccnc12)[C@H](Cc1ccccc1)n1cnc(-c2cc(Cl)ccc2-n2cc(Cl)nn2)cc1=O [Example 122, (S)-2-(4-(5-chloro-2-(4-chloro-1H-1,2,3-triazol-1-yl)phenyl)-6-oxopyrimidin-1(6H)-yl)-3-phenyl-N-(1H-pyrazolo[4,3-b]pyridin-3-yl)propanamide] | 632
17 | O=C(Nc1ccnc2ccc(C(F)(F)F)cc12)[C@H](Cc1ccccc1)n1cnc(-c2cc(Cl)ccc2-n2cc(Cl)nn2)cc1=O [Example 123, (S)-2-(4-(5-chloro-2-(4-chloro-1H-1,2,3-triazol-1-yl)phenyl)-6-oxopyrimidin-1(6H)-yl)-3-phenyl-N-(6-(trifluoromethyl)quinolin-4-yl)propanamide] | 7150
18 | O=C(Nc1ccnc2ccc(Cl)cc12)[C@H](Cc1ccccc1)n1cnc(-c2cc(Cl)ccc2-n2cc(Cl)nn2)cc1=O [Example 124, (S)-2-(4-(5-chloro-2-(4-chloro-1H-1,2,3-triazol-1-yl)phenyl)-6-oxopyrimidin-1(6H)-yl)-N-(6-chloroquinolin-4-yl)-3-phenylpropanamide] | 7150
19 | O=C(Nc1n[nH]c2ccccc12)[C@H](Cc1ccccc1)n1cnc(-c2cc(Cl)ccc2-n2cc(Cl)nn2)cc1=O [Example 125, (S)-2-(4-(5-chloro-2-(4-chloro-1H-1,2,3-triazol-1-yl)phenyl)-6-oxopyrimidin-1(6H)-yl)-N-(1H-indazol-3-yl)-3-phenylpropanamide] | 66.9
20 | O=C(Nc1ccnc2[nH]ncc12)[C@H](Cc1ccccc1)n1cnc(-c2cc(Cl)ccc2-n2cc(Cl)nn2)cc1=O [Example 126, (S)-2-(4-(5-chloro-2-(4-chloro-1H-1,2,3-triazol-1-yl)phenyl)-6-oxopyrimidin-1(6H)-yl)-3-phenyl-N-(1H-pyrazolo[3,4-b]pyridin-4-yl)propanamide] | 213
21 | O=C(NC1CCc2ccccc21)[C@H](Cc1ccccc1)n1cnc(-c2cc(Cl)ccc2-n2cc(Cl)nn2)cc1=O (stereo partly drawn) [Example 127, (2S)-2-(4-(5-chloro-2-(4-chloro-1H-1,2,3-triazol-1-yl)phenyl)-6-oxopyrimidin-1(6H)-yl)-N-(2,3-dihydro-1H-inden-1-yl)-3-phenylpropanamide] | 837
22 | O=C(NC1COc2ccccc21)[C@H](Cc1ccccc1)n1cnc(-c2cc(Cl)ccc2-n2cc(Cl)nn2)cc1=O (stereo partly drawn) [Example 128, (2S)-2-(4-(5-chloro-2-(4-chloro-1H-1,2,3-triazol-1-yl)phenyl)-6-oxopyrimidin-1(6H)-yl)-N-(2,3-dihydrobenzofuran-3-yl)-3-phenylpropanamide] | 826
23 | O=C(O)c1ccc(NC(=O)C(Cc2ccccc2)N2CCC(c3c(F)ccc(Cl)c3F)=CC2=O)cc1 (centres unmarked) [Example 129, 4-{2-[4-(3-Chloro-2,6-difluorophenyl)-6-oxo-1,2,3,6-tetrahydropyridin-1-yl]-3-phenylpropanamido}benzoic Acid] | 77
24 | O=C(O)c1ccc(NC(=O)[C@H](Cc2ccccc2)N2CCC(c3cc(Cl)ccc3-n3ccnn3)=CC2=O)cc1 [Example 136, 4-[(2S)-2-{4-[5-chloro-2-(1H-1,2,3-triazol-1-yl)phenyl]-6-oxo-1,2,3,6-tetrahydropyridin-1-yl}-3-phenylpropanamido]benzoic Acid] | 5.73
25 | O=C(O)c1ccc(NC(=O)[C@H](Cc2ccccc2)N2CCC(c3c(-n4ccnn4)ccc(Cl)c3F)=CC2=O)cc1 [Example 137, 4-[(2S)-2-{4-[3-chloro-2-fluoro-6-(1H-1,2,3-triazol-1-yl)phenyl]-6-oxo-1,2,3,6-tetrahydropyridin-1-yl}-3-phenylpropanamido]benzoic Acid] | 3.24
26 | O=C(O)c1ccc(NC(=O)[C@H](Cc2ccc(NC(=O)C3CC3)cc2)N2CCC(c3c(F)ccc(Cl)c3F)=CC2=O)cc1 [Example 140, (S)-4-(2-(4-(3-chloro-2,6-difluorophenyl)-6-oxo-3,6-dihydropyridin-1(2H)-yl)-3-(4-(cyclopropanecarboxamido)phenyl)propanamido)benzoic Acid] | 552
